For orientation: inhibition means the drop in the measured response relative to a control, in per cent. One may read the IC50 as the concentration that inhibits the measured activity by half. As usually defined, the Kd is the equilibrium constant for the complex coming apart.

These results are taken from patent US10975068B2, “6-aminopyridin-3-yl thiazoles as modulators of RORγT” (Janssen Pharmaceutica NV, priority 2016, dated 2021).

One assay deals with full-length human RORγt (Homo sapiens (Human), UniProt P51449). In words: RORγt (full-length human) reporter assay, Conditions B or C. Conditions: for IC50: read-out: RORγt (FL) Reporter Assay B or C, IC50; for RORγt (FL) Reporter Assay B or C, % inhibition (value marked *): marked *: footnote not given. The class given is cell-based. In a few lines: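 Readout is dual luciferase: firefly (GAL4-driven) normalized to DMSO-only and saturating-reference controls, then to CMV-Renilla. Full-length human RORγt fused to GAL4-DBD was transiently expressed in HEK293T; compound exposure ran overnight (16-20 h) starting 4-6 h after transfection, final FBS 1.3%, DMSO 0.1%.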
On the technique in general: A reporter such as luciferase makes a cellular process visible.

For assay [1], the target named is human RORγt ligand binding domain (RORγt LBD) (Homo sapiens (Human), UniProt P51449). In words: RORγt ThermoFluor® assay (thermal shift binding). The settings on record: read-out: ThermoFluor® Assay, Kd. The method, boiled down: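 Binding was inferred from thermal stabilisation (ΔTm) of the E. coli-expressed RORγt LBD (0.065 mg/mL), monitored by 1,8-ANS (60 μM) emission at 500 nm during a 1 °C/min ramp. Buffer was Hepes 100 mM pH 7.0 with NaCl, GSH and Tween-20.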
(Differential scanning fluorimetry follows unfolding on heating by fluorescence.)

The mark [2] stands for this setting: at 3 μM compound concentration, read-out: RORγt (FL) Reporter Assay B or C, % inhibition.

Like-named read-outs stand apart in the source and are kept apart here. Marks after values point to notes of the source that are not given here.

Sequence of full-length human RORγt (P51449 other isoform, or with tags, fused parts or gaps): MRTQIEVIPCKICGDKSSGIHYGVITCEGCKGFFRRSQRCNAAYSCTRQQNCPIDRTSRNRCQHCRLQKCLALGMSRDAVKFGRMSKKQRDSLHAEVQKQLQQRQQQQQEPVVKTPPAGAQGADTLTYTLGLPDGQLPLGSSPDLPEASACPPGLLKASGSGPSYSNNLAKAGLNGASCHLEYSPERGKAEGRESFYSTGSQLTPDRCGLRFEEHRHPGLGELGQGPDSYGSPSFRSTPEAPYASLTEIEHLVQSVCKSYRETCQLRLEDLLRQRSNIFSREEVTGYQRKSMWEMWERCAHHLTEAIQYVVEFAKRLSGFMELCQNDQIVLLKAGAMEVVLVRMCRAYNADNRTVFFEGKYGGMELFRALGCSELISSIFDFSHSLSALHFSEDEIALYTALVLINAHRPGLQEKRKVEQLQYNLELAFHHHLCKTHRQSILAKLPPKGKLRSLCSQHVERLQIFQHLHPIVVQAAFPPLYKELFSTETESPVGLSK
Sequence of human RORγt ligand binding domain (RORγt LBD) (P51449 other isoform, or with tags, fused parts or gaps): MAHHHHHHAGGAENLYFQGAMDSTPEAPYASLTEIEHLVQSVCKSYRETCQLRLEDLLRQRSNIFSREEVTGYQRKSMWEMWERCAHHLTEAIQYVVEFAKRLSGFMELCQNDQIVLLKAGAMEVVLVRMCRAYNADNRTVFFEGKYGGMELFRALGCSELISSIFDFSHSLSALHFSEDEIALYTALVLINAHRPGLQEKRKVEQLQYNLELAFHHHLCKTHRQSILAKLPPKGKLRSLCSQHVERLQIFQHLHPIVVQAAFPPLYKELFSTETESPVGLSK

In the case of `C[C@H](NC(=O)c1nc(C(=O)N2CC(F)(F)C[C@@H]2C)c(-c2cnc(NC3(C)CCC3)cc2C(F)F)s1)C(C)(C)O` [Example 326, 4-((S)-4,4-Difluoro-2-methylpyrrolidine-1-carbonyl)-5-(4-(difluoromethyl)-6-((1-methylcyclobutyl)amino)pyridin-3-yl)-N—((S)-3-hydroxy-3-methylbutan-2-yl)thiazole-2-carboxamide], the inhibition at 3 µM on full-length human RORγt (setting [2]) worked out at 90%. In addition, the IC50 on full-length human RORγt was 97 nM. Also, in assay [1], the Kd was found to be 0.71 nM.
Regarding `C[C@H]1CCCN1C(=O)c1nc(C(=O)N[C@H]2CC[C@H](O)C2)sc1-c1cnc(NC(C)(C)C)cc1C(F)F` [Example 414, 5-[6-(tert-Butylamino)-4-(difluoromethyl)-3-pyridyl]-N-[(1S,3S)-3-hydroxycyclopentyl]-4-[(2S)-2-methylpyrrolidine-1-carbonyl]thiazole-2-carboxamide], on full-length human RORγt (setting [2]), the inhibition at 3 µM worked out at 110%. For the same compound, the IC50 on full-length human RORγt was found to be 13 nM. Also, in assay [1], the Kd is 1.7 nM.
As for `C[C@H]1CCCN1C(=O)c1nc(C(=O)NCC2(O)CCC2)sc1-c1cnc(NC(C)(C)C)cc1C(F)(F)F` [Example 134, (S)-5-(6-(tert-Butylamino)-4-(trifluoromethyl)pyridin-3-yl)-N-((1-hydroxycyclobutyl)methyl)-4-(2-methylpyrrolidine-1-carbonyl)thiazole-2-carboxamide], on full-length human RORγt (Conditions B or C), the “RORγt (FL) Reporter Assay B or C, % inhibition (value marked *)” value (shortened to “RORγt … % inhibition (value marked *)”) is 108* % and the IC50 amounted to 14 nM. The Kd in assay [1] came to 1.2 nM.
For `C[C@H]1CCCN1C(=O)c1nc(C(=O)NCC(C)(C)O)sc1-c1cnc(NCC(C)(C)C)cc1C(F)F` [Example 113, (S)-5-(4-(Difluoromethyl)-6-(neopentylamino)pyridin-3-yl)-N-(2-hydroxy-2-methylpropyl)-4-(2-methylpyrrolidine-1-carbonyl)thiazole-2-carboxamide], in that order: 110* %, 63 nM and 6 nM.
On to `C[C@H](Nc1cc(C(F)F)c(-c2sc(C(=O)NC3CCC3O)nc2C(=O)N2CCC[C@@H]2C)cn1)C(F)(F)F` (stereo partly drawn) [Example 389, 5-(4-(Difluoromethyl)-6-(((S)-1,1,1-trifluoropropan-2-yl)amino)pyridin-3-yl)-N-(cis-2-hydroxycyclobutyl)-4-((S)-2-methylpyrrolidine-1-carbonyl)thiazole-2-carboxamide], for which the “RORγt (FL) Reporter Assay B or C, % inhibition” value on full-length human RORγt (at 3 μM compound concentration) is given as 90* %. Further, the 50% inhibitory concentration (IC50) on full-length human RORγt came out at 140 nM. Also, the Kd in assay [1] worked out at 7.7 nM.
Take `C[C@@H](NC(=O)c1nc(C(=O)N2C3CCC2CC3)c(-c2cnc(NC3(C)CCC3)cc2C(F)F)s1)C(C)(C)O` [Example 329, 4-((1s,4s)-7-Azabicyclo[2.2.1]heptane-7-carbonyl)-5-(4-(difluoromethyl)-6-((1-methylcyclobutyl)amino)pyridin-3-yl)-N—((R)-3-hydroxy-3-methylbutan-2-yl)thiazole-2-carboxamide]: the inhibition at 3 µM on full-length human RORγt (setting [2]) was 89%. Besides, the IC50 on full-length human RORγt turned out to be 38 nM. The dissociation constant (Kd) in assay [1] stood at 1.7 nM.
As for `C[C@H]1CCCN1C(=O)c1nc(C(=O)NCC(C)(C)O)sc1-c1cnc(NC(C2CC2)C2CC2)cc1C(F)F` [Example 179, (S)-5-(6-((Dicyclopropylmethyl)amino)-4-(difluoromethyl)pyridine-3-yl)-N-(2-hydroxy-2-methylpropyl)-4-(2-methylpyrrolidine-1-carbonyl)thiazole-2-carboxamide], on full-length human RORγt (Conditions B or C), the “RORγt … % inhibition (value marked *)” value is 105* % and the IC50 worked out at 18 nM. In addition, the Kd in assay [1] is 2.2 nM.
Turning to `CC[C@H](Nc1cc(C(F)F)c(-c2sc(C(=O)N[C@@H]3CC[C@@H](O)C3)nc2C(=O)N2CCC[C@@H]2C)cn1)C(F)(F)F` [Example 399, 5-[4-(Difluoromethyl)-6-[[(1S)-1-(trifluoromethyl)propyl]amino]-3-pyridyl]-N-[(1R,3R)-3-hydroxycyclopentyl]-4-[(2S)-2-methylpyrrolidine-1-carbonyl]thiazole-2-carboxamide], the inhibition at 3 µM on full-length human RORγt (setting [2]) was determined as 100%. Also, at full-length human RORγt, the IC50 was 25 nM. In addition, the Kd in assay [1] is 1.2 nM.
Regarding `C[C@H](Nc1cc(C(F)F)c(-c2sc(C(=O)N[C@H]3CC[C@H]3O)nc2C(=O)N2CCC[C@@H]2C)cn1)C(F)(F)F` (relative stereo) [Example 390, 5-(4-(Difluoromethyl)-6-(((S)-1,1,1-trifluoropropan-2-yl)amino)pyridin-3-yl)-N-((1S*,2R*)-2-hydroxycyclobutyl)-4-((S)-2-methylpyrrolidine-1-carbonyl)thiazole-2-carboxamide], the inhibition at 3 µM at full-length human RORγt (setting [2]) stood at 99%. Moreover, the IC50 on full-length human RORγt came to 28 nM. In addition, the dissociation constant Kd in assay [1] was found to be 12 nM.
As to `C[C@H](Nc1cc(C(F)F)c(-c2sc(C(=O)N[C@H]3CC[C@H](O)C3)nc2C(=O)N2C3CCC2CC3)cn1)C(F)(F)F` [Example 411, 4-((1s,4s)-7-Azabicyclo[2.2.1]heptane-7-carbonyl)-5-[4-(difluoromethyl)-6-[[(1S)-2,2,2-trifluoro-1-methyl-ethyl]amino]-3-pyridyl]-N-[(1S,3S)-3-hydroxycyclopentyl]thiazole-2-carboxamide], at full-length human RORγt (setting [2]), the inhibition at 3 µM stood at 100%. Besides, the IC50 at full-length human RORγt is 110 nM. In addition, the Kd in assay [1] was 3.6 nM.
For `CC[C@H](Nc1cc(C(F)F)c(-c2sc(C(=O)NC3CCC3O)nc2C(=O)N2CCC[C@@H]2C)cn1)C(F)(F)F` (stereo partly drawn) [Example 375, 5-(4-(Difluoromethyl)-6-(((S)-1,1,1-trifluorobutan-2-yl)amino)pyridin-3-yl)-N-(trans-2-hydroxycyclobutyl)-4-((S)-2-methylpyrrolidine-1-carbonyl)thiazole-2-carboxamide], on full-length human RORγt (setting [2]), the inhibition at 3 µM worked out at 105%. Besides, the IC50 at full-length human RORγt is 29 nM. Moreover, the Kd in assay [1] stood at 5.7 nM.
As to `CC[C@H](Nc1cc(C(F)F)c(-c2sc(C(=O)N[C@@H]3CC[C@@H](O)C3)nc2C(=O)N2C3CCC2CC3)cn1)C(F)(F)F` [Example 152], at full-length human RORγt (Conditions B or C), the IC50 was 11 nM. Moreover, the inhibition at 6 µM at full-length human RORγt (read-out: RORγt (FL) Reporter Assay B or C, % inhibition @ 6 μM, Conditions B or C, @ 6 μM) was 102%. For the same compound, the Kd in assay [1] stood at 0.88 nM.
On to `C[C@H]1CC(F)(F)CN1C(=O)c1nc(C(=O)NC2COCC2O)sc1-c1cnc(NC2(C)CCC2)cc1C(F)(F)F` (stereo in doubt) [Example 185, 4-((S)-4,4-Difluoro-2-methylpyrrolidine-1-carbonyl)-N-((3S,4R)-4-hydroxytetrahydrofuran-3-yl)-5-(6-((1-methylcyclobutyl)amino)-4-(trifluoromethyl)pyridine-3-yl)thiazole-2-carboxamide], for which, at full-length human RORγt (Conditions B or C), the “RORγt … % inhibition (value marked *)” value was 101* % and the IC50 worked out at 15 nM. In addition, the Kd in assay [1] is 0.23 nM.
For the compound `C[C@H]1CCCN1C(=O)c1nc(C(=O)NCC(C)(C)O)sc1-c1cnc(NCC2(C(F)(F)F)CC2)cc1C(F)F` [Example 276, 5-[4-(Difluoromethyl)-6-[[1-(trifluoromethyl)cyclopropyl]methylamino]-3-pyridyl]-N-(2-hydroxy-2-methyl-propyl)-4-[(2S)-2-methylpyrrolidine-1-carbonyl]thiazole-2-carboxamide], the inhibition at 1 µM at full-length human RORγt (at 1 μM compound concentration, read-out: RORγt (FL) Reporter Assay B or C, % inhibition) was 118%. For the same compound, on full-length human RORγt, the IC50 was found to be 16 nM. For the same compound, the Kd in assay [1] is 6.1 nM.
Regarding `C[C@H]1CCCN1C(=O)c1nc(C(=O)NCC(C)(C)N)sc1-c1cnc(NC(C)(C)C)cc1C(F)(F)F` [Example 355, N-(2-Amino-2-methyl-propyl)-5-[6-(tert-butylamino)-4-(trifluoromethyl)-3-pyridyl]-4-[(2S)-2-methylpyrrolidine-1-carbonyl]thiazole-2-carboxamide], the inhibition at 3 µM at full-length human RORγt (setting [2]) was 98%. For the same compound, at full-length human RORγt, the IC50 was found to be 170 nM. The Kd in assay [1] worked out at 22 nM.
On to `CC[C@H](Nc1cc(C(F)F)c(-c2sc(C(=O)N[C@@H]3CC[C@@H](O)C3)nc2C(=O)N2CC(F)(F)C[C@@H]2C)cn1)C(F)(F)F` [Example 424, 4-[(2S)-4,4-Difluoro-2-methyl-pyrrolidine-1-carbonyl]-5-[4-(difluoromethyl)-6-[[(1S)-1-(trifluoromethyl)propyl]amino]-3-pyridyl]-N-[(1R,3R)-3-hydroxycyclopentyl]thiazole-2-carboxamide], for which the inhibition at 3 µM on full-length human RORγt (setting [2]) was 98%. Moreover, the IC50 at full-length human RORγt is 63 nM. Further, the Kd in assay [1] came to 0.23 nM.
For the compound `CCC(C)(C)Nc1cc(C(F)(F)F)c(-c2sc(C(=O)NCC(C)(C)O)nc2C(=O)N2CCC[C@@H]2C)cn1` [Example 109, (S)—N-(2-Hydroxy-2-methylpropyl)-4-(2-methylpyrrolidine-1-carbonyl)-5-(6-(tert-pentylamino)-4-(trifluoromethyl)pyridin-3-yl)thiazole-2-carboxamide], at full-length human RORγt (Conditions B or C), the “RORγt … % inhibition (value marked *)” value is 124* % and the IC50 stood at 18 nM. For the same compound, the Kd in assay [1] amounted to 0.53 nM.
Turning to `C[C@H](Nc1cc(C(F)F)c(-c2sc(C(=O)N[C@H]3C[C@H](O)C3)nc2C(=O)N2C3CCC2CC3)cn1)C(F)(F)F` [Example 221, 4-((1s,4s)-7-Azabicyclo[2.2.1]heptane-7-carbonyl)-5-(4-(difluoromethyl)-6-(((1S)-2,2,2-trifluoro-1-methyl-ethyl)amino)-3-pyridyl)-N-((1r,3S)-3-hydroxycyclobutyl)thiazole-2-carboxamide], on full-length human RORγt (Conditions B or C), the “RORγt … % inhibition (value marked *)” value is 103* % and the IC50 was 78 nM. Moreover, the Kd in assay [1] was 27 nM.
